Key:
MRCKα = biological target: T1, MRCKα (Homo sapiens, UniProt Q5VT25); assay: Cell-free biochemical kinase activity assay (pMYPT1 immunoblot)
T1 construct: purchased Invitrogen
Method: (§1) Cell-free biochemical kinase inhibitory activity of these compounds was evaluated at 1 µM concentration using the previously described ROCK1 kinase activity assay. Among the 27 analogs, we identified four analogs (DJ110, DJ-Allyl, DJE4, and DJ-Morpholine) with >50% inhibition of MYPT1 phosphorylation (Supplementary Figure S1). These four compounds were selected for further evaluation at 1 µM and 0.1 µM for their in vitro inhibitory activity against ROCK1, ROCK2, MRCKα, and MRCKβ kinases.
(§2) Cell-free biochemical kinase activity was assayed using published procedures. Briefly, recombinant ROCK1 (9.48 nM) or ROCK2 (8.26 nM; Invitrogen, Waltham, MA, USA) was incubated in the presence of 0.1 and 1 µM concentrations of DJ4 analogs or DMSO in ROCK-assay buffer at room temperature (RT) for 10 min. MRCKα and MRCKβ (2 ng/µL; Invitrogen) assays were performed in the assay buffer recommended by the manufacturer. Recombinant MYPT1 (20 ng/µL; Millipore) and ATP (5 µM) were added to initiate the reaction. The reaction was incubated at 30 °C for 20 min. Western blot analysis of these samples for phosphorylation of MYPT1 was performed as per the method mentioned in our earlier publication. Briefly, an equal amount of sample was loaded on Bis-Tris gel (Novex, Life Technologies, Carlsbad, CA, USA), proteins were electrophoresed and transferred to PVDF membranes. The blots were probed with anti-pMYPT1 (Thr696) or anti-MYPT1 (Millipore) antibodies.

MRCKβ = biological target: T2, MRCKβ (Homo sapiens, UniProt Q9Y5S2); assay: as above; conditions: 1 µM
T2 construct: purchased Invitrogen
Method: as §1, §2

[1] = system: MDA-MB-231 breast cancer cells; assay: Caspase 3/7 assay (Muse); format: cell-based, human; conditions: MDA-MB-231, 2.5 µM, 48 h (DMSO 6.2)
Method: Figure 8 DJ4 analogs induce cell cycle arrest and apoptotic cell death in MDA-MB-231 breast cancer cells. (A) DJ4 analogs induce cell cycle arrest in MDA-MB-231 breast cancer cells. To study the cell cycle arrest by DJ4 analogs, serum-starved cell cycle-synchronized MDA-MB-231 cells were treated with 2.5 µM concentration of each compound for 24 h and stained with propidium iodide. Treatment with all the analogs, except DJ-Morpholine, induced significant arrest of cells in G2/M phase of cell cycle. (B) Apoptotic cell death by DJ4 analogs was evaluated by measuring caspase 3/7 activation in breast cancer cells. Cells were treated with 2.5 µM concentration of each compound for 48 h and incubated with fluorescent dye. All the compounds except DJ-Morpholine induced significant apoptotic cell death. TEXT PRINTED IN THE PICTURE: (A) DMSO: G1 : 48.40%; S : 44%; G2/M: 7.60% | (A) DJ4: G1 : 27.41%; S : 38.58%; G2/M: 34.01% | (A) DJ-Allyl: G1 : 15.94%; S : 55.51%; G2/M: 28.54% | (A) DJE4: G1 : 19.14%; S : 58.48%; G2/M: 22.37% | (A) DJ110: G1 : 19.16%; S : 38.39%; G2/M: 42.51% | (A) DJ-Morpholine: G1 : 43.16%; S : 51.10%; G2/M: 5.74% | (B) DMSO: Dead 3.10 %; Apoptotic/Dead 4.40 %; 6.2; 1.75 % Apoptotic | (B) DJ4: Dead 5.45 %; Apoptotic/Dead 36.80 %; 52.9; 41.65 % Live; 16.10 % Apoptotic | (B) DJ-Allyl: Dead 3.05 %; Apoptotic/Dead 9.90 %; 18.1; 78.90 % Live; 8.15 % Apoptotic | (B) DJE4: Dead 1.85 %; Apoptotic/Dead 8.15 %; 13.4; 84.75 % Live; 5.25 % Apoptotic | (B) DJ110: Dead 9.05 %; Apoptotic/Dead 56.60 %; 64.4; 26.60 % Live; 7.75 % Apoptotic | (B) DJ-Morpholine: Dead 1.90 %; Apoptotic/Dead 5.00 %; 8.0; 90.10 % Live; 3.00 % Apoptotic DOUBTS OF THE COPYIST ABOUT THIS PICTURE: Panel A: the print is very small and blurred, so 3, 5, 6, 8 and 9 cannot be told apart with certainty in any of its values / A, DMSO: G1 48.40% or 46.40%; S 44% (a decimal part may be hidden); G2/M 7.60% or 7.80% / A, DJ4: G1 27.41%; S 38.58% or 38.98%; G2/M 34.01% uncertain / A, DJ-Allyl: G1 15.94%; S 55.51% or 53.51%; G2/M 28.54% or 26.54% uncertain / A, DJE4: G1 19.14%; S 58.48% or 58.46%; G2/M 22.37% uncertain / A, DJ110: G1 19.16% or 19.18%; S 38.39% or 38.33%; G2/M 42.51% uncertain / A, DJ-Morpholine: G1 43.16%; S 51.10%; G2/M 5.74% uncertain / B, DMSO, Live: the value is hidden by data points (only '.75 %' can be read, perhaps 90.75 or 89.75), so it is left out / B, DJ4, Live: partly hidden by data points, 41.65 is the best reading / B, DJ-Allyl, Live: partly hidden by data points, 78.90 or 76.90 / B, DJE4, Live: partly hidden by data points, 84.75 or 64.75 / B, DJ110, Live: partly hidden by data points, 26.60 or 28.60 / B, DJ-Morpholine, Live: partly hidden by data points, 90.10 or 20.10 / B: the large bold numbers (6.2, 52.9, 18.1, 13.4, 64.4, 8.0) are printed with no measure or unit
To determine whether the active analogs induce apoptotic cell death similar to the DJ4 parent compound, we treated MDA-MB-231 breast cancer cells with 2.5 µM concentration of all the analogs for 48 h (Figure 8). The cells were then analyzed for activation of caspase 3/7 (a marker for apoptotic cell death) and propidium iodide (a marker of cell membrane integrity) using the Muse^TM (EMD Millipore) two color bench-top flow cytometer. […]
To examine whether the selected compounds induce apoptosis, we treated MDA-MB-231 breast cancer cells with 5 µM of each compound. […] The data were quantified by using FlowJo software (version 10).

T2 sequence (Q9Y5S2 whole entry): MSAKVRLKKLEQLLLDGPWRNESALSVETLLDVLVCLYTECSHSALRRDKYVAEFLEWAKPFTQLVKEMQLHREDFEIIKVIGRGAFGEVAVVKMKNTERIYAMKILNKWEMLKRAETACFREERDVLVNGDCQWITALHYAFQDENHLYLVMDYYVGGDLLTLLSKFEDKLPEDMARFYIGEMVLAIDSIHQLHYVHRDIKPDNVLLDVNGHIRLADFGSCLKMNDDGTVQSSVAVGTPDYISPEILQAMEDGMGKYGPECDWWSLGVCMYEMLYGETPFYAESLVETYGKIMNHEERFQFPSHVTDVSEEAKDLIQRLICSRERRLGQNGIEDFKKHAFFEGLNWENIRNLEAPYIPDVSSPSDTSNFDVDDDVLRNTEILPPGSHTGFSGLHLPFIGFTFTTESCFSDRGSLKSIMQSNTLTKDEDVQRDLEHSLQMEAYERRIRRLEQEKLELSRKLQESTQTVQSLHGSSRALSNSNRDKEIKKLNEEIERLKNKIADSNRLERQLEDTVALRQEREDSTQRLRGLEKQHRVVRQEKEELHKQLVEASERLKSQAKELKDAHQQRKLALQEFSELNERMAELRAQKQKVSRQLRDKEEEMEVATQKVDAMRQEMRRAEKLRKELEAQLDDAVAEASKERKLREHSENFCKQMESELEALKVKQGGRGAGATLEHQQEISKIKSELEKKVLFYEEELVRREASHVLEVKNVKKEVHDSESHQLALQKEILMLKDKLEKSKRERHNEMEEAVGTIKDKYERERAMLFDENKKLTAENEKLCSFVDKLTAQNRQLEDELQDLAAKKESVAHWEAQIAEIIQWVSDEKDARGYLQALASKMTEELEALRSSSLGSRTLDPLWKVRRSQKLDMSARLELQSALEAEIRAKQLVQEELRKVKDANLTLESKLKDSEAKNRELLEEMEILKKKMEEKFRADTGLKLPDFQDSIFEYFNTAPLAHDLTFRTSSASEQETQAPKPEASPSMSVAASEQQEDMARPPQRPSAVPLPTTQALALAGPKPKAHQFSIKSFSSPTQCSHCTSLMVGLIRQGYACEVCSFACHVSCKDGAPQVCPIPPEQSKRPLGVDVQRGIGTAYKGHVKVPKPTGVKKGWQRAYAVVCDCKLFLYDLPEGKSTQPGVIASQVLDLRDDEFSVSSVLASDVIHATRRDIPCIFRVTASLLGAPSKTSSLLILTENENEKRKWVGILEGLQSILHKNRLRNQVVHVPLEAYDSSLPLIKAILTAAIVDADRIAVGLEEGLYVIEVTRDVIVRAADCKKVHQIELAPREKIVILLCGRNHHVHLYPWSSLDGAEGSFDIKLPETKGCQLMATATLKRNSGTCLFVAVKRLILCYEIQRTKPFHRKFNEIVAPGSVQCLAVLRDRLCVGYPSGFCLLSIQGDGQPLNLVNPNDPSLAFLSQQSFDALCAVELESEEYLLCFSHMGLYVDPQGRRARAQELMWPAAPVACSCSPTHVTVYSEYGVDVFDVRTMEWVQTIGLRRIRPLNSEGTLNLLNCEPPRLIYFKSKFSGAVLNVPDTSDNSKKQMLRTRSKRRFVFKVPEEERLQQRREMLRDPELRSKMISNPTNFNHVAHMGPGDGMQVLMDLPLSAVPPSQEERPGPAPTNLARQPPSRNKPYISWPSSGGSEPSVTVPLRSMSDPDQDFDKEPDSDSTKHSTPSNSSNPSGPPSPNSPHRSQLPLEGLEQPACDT
T1 sequence (Q5VT25 whole entry): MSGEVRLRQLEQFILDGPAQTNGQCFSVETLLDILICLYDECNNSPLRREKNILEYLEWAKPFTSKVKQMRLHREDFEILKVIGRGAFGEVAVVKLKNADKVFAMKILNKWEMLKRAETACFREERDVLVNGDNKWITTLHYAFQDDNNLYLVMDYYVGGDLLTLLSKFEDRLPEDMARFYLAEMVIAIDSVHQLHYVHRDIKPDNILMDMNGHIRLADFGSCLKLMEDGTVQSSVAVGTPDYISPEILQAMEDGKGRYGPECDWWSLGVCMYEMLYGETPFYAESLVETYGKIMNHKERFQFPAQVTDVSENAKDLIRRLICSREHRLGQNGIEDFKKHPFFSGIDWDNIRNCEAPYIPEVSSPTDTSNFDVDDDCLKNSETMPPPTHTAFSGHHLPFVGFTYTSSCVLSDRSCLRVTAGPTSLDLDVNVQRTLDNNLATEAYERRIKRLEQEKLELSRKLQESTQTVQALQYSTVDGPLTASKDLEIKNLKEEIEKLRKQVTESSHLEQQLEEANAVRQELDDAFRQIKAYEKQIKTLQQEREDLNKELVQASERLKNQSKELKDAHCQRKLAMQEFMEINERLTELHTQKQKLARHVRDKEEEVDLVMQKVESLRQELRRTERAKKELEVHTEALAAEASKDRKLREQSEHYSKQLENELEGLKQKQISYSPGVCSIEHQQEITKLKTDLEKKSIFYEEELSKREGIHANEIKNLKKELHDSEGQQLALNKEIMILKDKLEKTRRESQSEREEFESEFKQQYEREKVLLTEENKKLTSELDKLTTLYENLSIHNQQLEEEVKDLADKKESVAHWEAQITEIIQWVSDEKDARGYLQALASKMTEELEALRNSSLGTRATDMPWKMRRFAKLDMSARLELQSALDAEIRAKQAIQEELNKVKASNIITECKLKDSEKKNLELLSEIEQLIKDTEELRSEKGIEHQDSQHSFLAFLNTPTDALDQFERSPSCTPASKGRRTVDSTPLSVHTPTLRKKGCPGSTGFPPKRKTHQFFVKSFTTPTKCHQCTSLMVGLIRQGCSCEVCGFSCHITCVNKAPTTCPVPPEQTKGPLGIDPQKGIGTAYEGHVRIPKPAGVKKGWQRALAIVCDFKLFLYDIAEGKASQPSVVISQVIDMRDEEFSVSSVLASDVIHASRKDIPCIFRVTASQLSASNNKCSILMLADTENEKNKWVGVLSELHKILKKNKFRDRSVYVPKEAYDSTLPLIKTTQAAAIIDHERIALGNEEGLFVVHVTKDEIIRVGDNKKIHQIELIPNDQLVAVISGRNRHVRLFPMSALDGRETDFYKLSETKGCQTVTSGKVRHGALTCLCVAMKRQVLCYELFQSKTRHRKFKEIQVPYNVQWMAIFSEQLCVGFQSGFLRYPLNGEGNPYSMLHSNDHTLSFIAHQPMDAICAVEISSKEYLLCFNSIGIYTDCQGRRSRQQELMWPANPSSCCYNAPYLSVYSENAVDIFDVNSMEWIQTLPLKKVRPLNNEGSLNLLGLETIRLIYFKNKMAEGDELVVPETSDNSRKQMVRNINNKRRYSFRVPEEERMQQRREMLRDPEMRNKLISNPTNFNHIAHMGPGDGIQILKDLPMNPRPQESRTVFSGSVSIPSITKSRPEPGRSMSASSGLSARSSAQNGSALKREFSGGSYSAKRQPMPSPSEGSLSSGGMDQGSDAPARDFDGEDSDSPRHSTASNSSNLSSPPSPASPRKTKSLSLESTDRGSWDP

| Compound | inhibition of kinase activity (qualitative immunoblot) (MRCKα; 0.1 µM) | inhibition of kinase activity (qualitative immunoblot) (MRCKα; 1 µM) | inhibition of kinase activity (qualitative immunoblot) (MRCKβ) | apoptosis (Q2 + Q3), caspase 3/7 [1] |
| --- | --- | --- | --- | --- |
| O=C1N/C(=N\Cc2ccccc2)S/C1=C/c1c[nH]c2ncccc12 [DJ110] | significantly inhibited | significantly inhibit | significantly inhibit | 64.4% |
| C=CC/N=C1\NC(=O)/C(=C\c2c[nH]c3ncccc23)S1 [DJ-Allyl] | – | minimal inhibition | minimal inhibition | 18.1% |
| O=C1N/C(=N\CCN2CCOCC2)S/C1=C/c1c[nH]c2ncccc12 [DJ-Morpholine] | – | minimal inhibition | minimal inhibition | 8% |
| CC/N=C1\NC(=O)/C(=C\c2c[nH]c3ncccc23)S1 [DJE4] | – | minimal inhibition | minimal inhibition | 13.4% |
| O=C1N/C(=N\CCc2ccccc2)S/C1=C/c1c[nH]c2ncccc12 [DJ4] | ineffective | significantly inhibit | significantly inhibit | 52.9% |
